Measurements from US20130165446A1 (priority 2010, published 2013).

Each compound was assayed against T1, human recombinant (CHO cell) AT1 receptor (Homo sapiens, UniProt P30556) (assay: Angiotensin II inhibition test (radioligand binding to AT1 receptor)). Details: test compound concentration 10^−9 M; radioactive iodine-labeled angiotensin II, 37° C., sixty minutes.
T1 construct: expressed in transfected cells; host or cells: CHO cells
T1 sequence (P30556 1-359): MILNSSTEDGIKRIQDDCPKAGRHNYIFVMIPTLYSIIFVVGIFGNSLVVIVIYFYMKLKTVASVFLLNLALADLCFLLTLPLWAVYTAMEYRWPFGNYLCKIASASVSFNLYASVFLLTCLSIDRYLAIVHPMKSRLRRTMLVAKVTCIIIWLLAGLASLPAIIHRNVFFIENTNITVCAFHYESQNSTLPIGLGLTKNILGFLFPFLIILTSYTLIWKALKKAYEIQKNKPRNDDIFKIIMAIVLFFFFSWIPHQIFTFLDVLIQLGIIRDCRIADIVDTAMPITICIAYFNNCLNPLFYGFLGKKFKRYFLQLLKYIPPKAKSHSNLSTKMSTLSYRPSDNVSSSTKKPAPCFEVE
Protocol: A test of inhibition of angiotensin II to human recombinant (CHO cell) AT1 receptor following a method described in the literature (for example, Regul. Pept., vol. 44 (2), page 131 (1993)) was used to measure inhibitory activity to a test compound.
The ligand used was 10^−9 M of a test compound dissolved in 1% DMSO (dimethylsulfoxide). This was reacted with radioactive iodine-labeled angiotensin II at 37° C. for sixty minutes. Taking the inhibition rate of angiotensin II at 10 μM as nonspecific binding, the specific binding rate was calculated by subtracting this nonspecific portion. Table 6 indicates the results (the inhibition rate at test compound concentration: 10^−9 M)

Compound | Inhibition rate (%)
CCCc1nc(COc2ccc(Sc3ccc4nc(COc5ccc(CC6SC(=O)NC6=O)cc5)n(C)c4c3)cc2)c(C(=O)OCC)n1Cc1ccc(-c2ccccc2-c2nnn[nH]2)cc1 (stereo not drawn) [Example 29, 4-[4-{2-[4-(2,4-dixothiazolidin-5-ylmethyl)phenoxymethyl]-1-methyl-1H-benzimidazol-6-ylthio}phenoxymethyl]-2-propyl-1-[2′-(1H-tetrazol-5-yl)biphenyl-4-ylmethyl]-1H-imidazole-5-carboxylic acid ethyl ester] | 40
CCCc1nc(CSCCNC(=O)CSc2ccc3nc(COc4ccc(CC5SC(=O)NC5=O)cc4)n(C)c3c2)c(C(=O)OCC)n1Cc1ccc(-c2ccccc2-c2nnn[nH]2)cc1 (stereo not drawn) [Example 19] | 65
CCCc1nc(CSc2ccc(Oc3ccc4nc(COc5ccc(CC6SC(=O)NC6=O)cc5)n(C)c4c3)cc2)c(C(=O)NC)n1Cc1ccc(-c2ccccc2-c2nnn[nH]2)cc1 (stereo not drawn) [Example 27, N-methyl-(4-[4-{2-[4-(2,4-dioxothiazolidyn-5-ylmethyl)phenoxymethyl]-1-methyl-1H-benzimidazol-6-yloxy}phenylthiomethyl]-2-propyl-1-[2′-(1H-tetrazol-5-yl)biphenyl-4-ylmethyl]-1H-imidazole)-5-carboxamide] | 66
CCCc1nc2c(C)cc(-c3nc4ccc(N(C)CCOc5ccc6nc(COc7ccc(CC8SC(=O)NC8=O)cc7)n(C)c6c5)cc4n3C)cc2n1Cc1ccc(-c2ccccc2-c2nnn[nH]2)cc1 (stereo not drawn) [Example 3, 5-[4-[6-{2-(N-(1-methyl-2-[4-methyl-2-propyl-1-(2′-(1H-tetrazol-5-yl)biphenyl-4-ylmethyl)-1H-benzimidazol-6-yl]-1H-benzamidazol-6-yl)-N-methylamino)ethoxy}-1-methyl-1H-benzimidazol-2-ylmethoxy]benzyl]thiazolidine-2,4-dione] | 60

Same assay, conditions: test compound concentration 10^−9 M; radioactive iodine-labeled angiotensin II, 37° C., sixty minutes; read-out: Inhibition rate (%)

Compound | inhibition at 0.001 µM [%]
CCCc1nc(CSCCSc2ccc(Oc3ccc4nc(COc5ccc(CC6SC(=O)NC6=O)cc5)n(C)c4c3)cc2)c(C(=O)OCC)n1Cc1ccc(-c2ccccc2-c2nnn[nH]2)cc1 (stereo not drawn) [Example 14, 4-[2-[4-{1-methyl-2-(4-(2,4-dioxothiazolidin-5-ylmethyl)phenoxymethyl)-1H-benzimidazol-6-yloxy}phenylthio]ethylthiomethyl]-2-propyl-1-[2′-(1H-tetrazol-5-yl)biphenyl-4-ylmethyl]-1H-imidazole-5-carboxylic acid ethyl ester] | 38
CCCc1nc2c(C)cc(COc3ccc4nc(COc5ccc(CC6SC(=O)NC6=O)cc5)n(C)c4c3)cc2n1Cc1ccc(-c2ccccc2-c2nnn[nH]2)cc1 (stereo not drawn) [Example 1, 5-(4-{6-[4-methyl-2-propyl-1-[2′-(1H-tetrazol-5-yl)biphenyl-4-ylmethyl]-1H-benzimidazol-6-ylmethoxy]-1-methyl-1H-benzimidazol-2-ylmethoxy}benzyl)thiazolidine-2,4-dione] | 51
CCCc1nc(CSc2ccc3nc(COc4ccc(CC(OCc5ccc(Cl)cc5)C(=O)O)cc4)n(C)c3c2)c(C(=O)OCC)n1Cc1ccc(-c2ccccc2-c2nnn[nH]2)cc1 (stereo not drawn) [Example 35, 3-[4-[6-(5-ethoxycarbonyl-1-{2′-(1H-tetrazol-5-yl)biphenyl-4-ylmethyl}-2-propyl-1H-imidazol-4-ylmethylthio)-1-methyl-1H-benzimidazol-2-ylmethoxy]phenyl]-2-(4-chlorobenzyloxy)propionic acid] | 90
CCCc1nc(CSc2ccc3nc(COc4ccc(CC5SC(=O)NC5=O)cc4)n(C)c3c2)c(C(=O)OCC)n1Cc1ccc(-c2ccccc2-c2nnn[nH]2)cc1 (stereo not drawn) [Example 33, 4-{2-[4-(2,4-dioxothiazolidin-5-ylmethyl)phenoxymethyl]-1-methyl-1H-benzimidazol-6-ylthiomethyl}-2-propyl-1-[2′-(1H-tetrazol-5-yl)biphenyl-4-ylmethyl]-1H-imidazole-5-carboxylic acid ethyl ester] | 87
CCCc1nc(CSc2ccc(Oc3ccc4nc(COc5ccc(CC6SC(=O)NC6=O)cc5)n(C)c4c3)cc2)c(C(=O)OC)n1Cc1ccc(-c2ccccc2-c2nnn[nH]2)cc1 (stereo not drawn) [Example 30, 4-[4-{2-[4-(2,4-dioxothiazolidin-5-ylmethyl)phenoxymethyl]-1-methyl-1H-benzimidazol-6-yloxy}phenylthiomethyl]-2-propyl-1-[2′-(1H-tetrazol-5-yl)biphenyl-4-ylmethyl]-1H-imidazole-5-carboxylic acid methyl ester] | 66
CCCc1nc(CSc2ccc3nc(COc4ccc(CN(CC(=O)O)C(=O)Oc5ccccc5)cc4)n(C)c3c2)c(C(=O)OCC)n1Cc1ccc(-c2ccccc2-c2nnn[nH]2)cc1 [Example 36, N-[4-{6-[5-ethoxycarbonyl-1-{2′-(1H-tetrazol-5-yl)biphenyl-4-ylmethyl}-2-propyl-1H-imidazol-4-ylmethylthio]-1-methyl-1H-benzimidazol-2-ylmethoxy}phenylmethyl]-N-phenyloxycarbonylaminoacetic acid] | 83
CCCc1nc(CNc2ccc(Oc3ccc4nc(COc5ccc(CC6SC(=O)NC6=O)cc5)n(C)c4c3)cc2)c(C(=O)OCC)n1Cc1ccc(-c2ccccc2-c2nnn[nH]2)cc1 (stereo not drawn) [Example 31, 4-{N-[4-[2-(4-[2,4-dioxothiazolidin-5-ylmethyl]phenoxymethyl)-1-methyl-1H-benzimidazol-6-yloxy]phenyl]aminomethyl}-2-propyl-1-[2′-(1H-tetrazol-5-yl)biphenyl-4-ylmethyl]-1H-imidazole-5-carboxylic acid ethyl ester] | 22

Next, values leading:

inhibition at 0.001 µM [%] | Compound
66 | CCCc1nc2c(C)cc(C(=O)NCc3ccc(Oc4ccc5nc(COc6ccc(CC7SC(=O)NC7=O)cc6)n(C)c5c4)cc3)cc2n1Cc1ccc(-c2ccccc2-c2nnn[nH]2)cc1 (stereo not drawn) [Example 28, 5-[4-[6-{4-(4-methyl-2-propyl-1-[2′-(1H-tetrazol-5-yl)biphenyl-4-ylmethyl]-1H-benzimidazol-6-ylcarbonylaminomethyl)phenoxy}-1-methyl-1H-benzimidazol-2-ylmethoxy]benzyl]thiazolidin-2,4-dione]
22 | CCCCc1nc(Cl)c(C[S+]([O-])c2ccc3nc(COc4ccc(CC5SC(=O)NC5=O)cc4)n(C)c3c2)n1Cc1ccc(-c2ccccc2-c2nnn[nH]2)cc1 (stereo not drawn) [Example 23, 5-(4-{6-[2-butyl-4-chloro-1-[2′-(1H-tetrazol-5-yl)biphenyl-4-ylmethyl]-1H-imidazol-5-ylmethylsulfinyl]-1-methyl-1H-benzimidazol-2-ylmethoxy}benzyl)thiazolidine-2,4-dione]
44 | CCCc1nc(CS(=O)(=O)c2ccc(Oc3ccc4nc(COc5ccc(CC6SC(=O)NC6=O)cc5)n(C)c4c3)cc2)c(C(=O)OCC)n1Cc1ccc(-c2ccccc2-c2nnn[nH]2)cc1 (stereo not drawn) [Example 26, 4-[4-{2-[4-(2,4-dioxothiazolidin-5-ylmethyl)phenoxymethyl]-1-methyl-1H-benzimidazol-6-yloxy}phenylsulfonylmethyl]-2-propyl-1-[2′-(1H-tetrazol-5-yl)biphenyl-4-ylmethyl]-1H-imidazole-5-carboxylic acid ethyl ester]
60 | CCCc1nc2c(C)cc(-c3nc4ccc(N(C)CCOc5ccc(CC6SC(=O)NC6=O)cc5)cc4n3C)cc2n1Cc1ccc(-c2ccccc2C(=O)O)cc1 (stereo not drawn) [Example 22, 4′-[6-{6-(N-2-[4-(2,4-dioxothiazolidin-5-ylmethyl)phenoxy]ethyl-N-methylamino)-1-methyl-1H-benzimidazol-2-yl}-4-methyl-2-propyl-1H-benzimidazol-1-ylmethyl]biphenyl-2-carboxylic acid]
41 | CCCc1nc2c(C)cc(CN(C)c3ccc4nc(COc5ccc(CC6SC(=O)NC6=O)cc5)n(C)c4n3)cc2n1Cc1ccc(-c2ccccc2C(=O)O)cc1 (stereo not drawn) [Example 10, 4′-[6-(N-{2-[4-(2,4-dioxothiazolidin-5-ylmethyl)phenoxymethyl]-3-methyl-3H-imidazo[4,5-b]pyridin-5-yl}-N-methylaminomethyl)-4-methyl-2-propyl-1H-benzimidazol-1-ylmethyl]biphenyl-2-carboxylic acid]
52 | CCCc1nc(COc2ccc3nc(COc4ccc(CC5SC(=O)NC5=O)cc4)n(C)c3c2)c(C(=O)OCC)n1Cc1ccc(-c2ccccc2-c2nnn[nH]2)cc1 (stereo not drawn) [Example 7, 4-{2-[4-(2,4-dioxothiazolidin-5-ylmethyl)phenoxymethyl]-1-methyl-1H-benzimidazol-6-yloxymethyl}-2-propyl-1-[2′-(1H-tetrazol-5-yl)biphenyl-4-ylmethyl]-1H-imidazole-5-carboxylic acid ethyl ester]
47 | CCCc1nc(CSCCOc2ccc3nc(COc4ccc(CC5SC(=O)NC5=O)cc4)n(C)c3c2)c(C(=O)OCC)n1Cc1ccc(-c2ccccc2-c2nnn[nH]2)cc1 (stereo not drawn) [Example 15, 4-[2-[1-methyl-2-{4-(2,4-dioxothiazolidin-5-ylmethyl)phenoxymethyl}-1H-benzimidazol-6-yloxy]ethylthiomethyl]-2-propyl-1-[2′-(1H-tetrazol-5-yl)biphenyl-4-ylmethyl]-1H-imidazole-5-carboxylic acid ethyl ester]
